Source: patent publication US10941158B2, “Pyrazole ACC inhibitors and uses thereof” (Gilead Apollo, LLC, priority 2015, dated 2021)
Converted amounts (≈) assume the structure as drawn. Read-outs that look alike come from different tables or passages of the source.

Key:
[1] = system: C. parapsilosis ATCC 22019; test: Anti-Fungal (Candida) Activity Assay, broth microtiter MIC; assay type: cell-based; details: Lodderomyces parapsilosis, ATCC22019; 3 replicates, MIC recorded at 48 h; read-out: MIC C. parapsilosis ATCC 22019
Procedure: (§1) Compounds of the present invention were evaluated in an Anti-Fungal Activity Assay. An exemplary procedure for the assay, which measures the susceptibility of various Candida species to anti-fungal compounds, follows. Compounds to be tested (including fluconazole and amphotericin B) were dissolved in DMSO to obtain a solution having a concentration of 1 mg/mL. […] All species were grown from frozen stock by directly plating on to freshly prepared Sabouraud Dextrose agar (BD, Difco) and incubated overnight in ambient air at 35° C. for 24 h. A direct suspension was prepared in RPMI 1640+MOPS (Lonza, Biowhittaker) by taking individual colonies from the overnight cultures using sterile swabs soaked in sterile saline. The concentration of the suspension was determined using pre-determined standard curves. […] Broth microtiter MIC challenge plates were prepared following CLSI guidelines (M27-A3, Vol. 28 No. 14). The original CLSI guidelines focused on reading Candida MICs after 48 h of incubation. As reading after only 24 h offers a clear advantage of patient care, QC limits are being established for all drugs at 24 h. That being said there are no known interpretive breakpoints for amphotericin B at 24 h and the current fluconazole interpretive breakpoints are based on a 48 h reading. The MIC for the test compounds were recorded at 48 h. All MIC determinations were achieved by visually comparing the growth found in the antibiotic challenged wells to that of the growth control.

C. krusei ATCC 6258 = test: as above; assay type: cell-based; details: Pichia kudriavzevii, ATCC6258; 3 replicates, MIC recorded at 48 h; read-out: MIC C. krusei ATCC 6258
Procedure: as §1

C. albicans ATCC 90028 = test: as above; assay type: cell-based; details: ATCC90028, 3 replicates, MIC recorded at 48 h, read-out: MIC C. albicans ATCC 90028
Procedure: as §1

[2] = system: Phytophthora capsici (Pc); test: Growth inhibition assay of fungal pathogens; assay type: cell-based; details: 48 hours; for IC90: Phytophthora capsici, read-out: Concentration at 90% Inhibition Pc
Procedure: (§2) Compounds of the present invention were evaluated in a growth inhibition assay to determine the ability to control the growth of fungal pathogens, such as Botrtyis cinerea (Bc), Collectotrichum graminicola (Cg). Diplodia maydis (Dm), Fusarium moniliforme (Fm), Fusarium virguliforme (Fv), Phytophthora capsici (Pc), Rhizoctonia solani (Rs), and Septoria tritici (St). Compounds to be tested were dissolved in DMSO at 2.5 mg/ml to produce compound stock solutions (“stocks”). Stocks were diluted with DMSO by a five-fold dilution in a 96-well stock plate, and two sets of final concentrations of 50, 10, and 2 ppm or 2, 0.4, and 0.08 ppm were obtained in vitro. A set of positive controls was also prepared, with various concentrations of Soraphen (2, 0.4, and 0.08 ppm), Metalaxyl (1.1, 0.22, and 0.04 ppm), and Metconazole (2, 0.4, and 0.08 ppm or 0.2, 0.04, and 0.008 ppm) after the five-fold dilutions. Negative controls on each plate included 2% DMSO, water, and a blank (media+2% DMSO). Fungal spores were isolated from previously sub-cultured plates of Botrtyis cinerea (Bc). Collectotrichum graminicola (Cg). Diplodia maydis (Dm), Fusarium moniliforme (Fm), Fusarium virguliforme (Fv), Phytophthora capsici (Pc), and Septoria tritici (St). The isolated spores were diluted to individual concentrations with a 17% V8 liquid media. For Rhizoctonia solani (Rs) and Pythium irregulare, 1.5 mm mycelial plugs were used in place of spores and ¼ Potato Dextrose Broth (PDB) was used for dilution. The spore concentrations and plug sizes were based on growth curves generated at 48 hours for each pathogen. In a second 96-well plate, the spores or mycelial plugs, media, diluted compound solutions, and controls were combined. Once the compound was added, a true final concentration of compound in each well was measured by an OD600 reading, which adjusted for any compound precipitation that might have occurred in the well. Plate readings were repeated at both 24 and 48 hours. The blank negative control was used as a background subtraction. Additional visual ratings were performed at both 24 and 48 hours for checking on precipitation and confirming efficacy. Visual and OD600 ratings of the compounds at 48 hours were compared to the 2% DMSO negative control, and the percent of pathogen growth inhibition was determined based on those values.

Septoria tritici (St) = test: Growth inhibition assay of fungal pathogens; assay type: cell-based; details: 48 hours; for IC90: Zymoseptoria tritici, read-out: Concentration at 90% Inhibition St
Procedure: as §2

[3] = system: Fusarium moniliforme (Fm); test: Growth inhibition assay of fungal pathogens; assay type: cell-based; details: Fusarium verticillioides, 48 h, 48 hours, read-out: Concentration at 90% Inhibition Fm
Procedure: as §2

[4] = system: Fusarium virguliforme (Fv); test: Growth inhibition assay of fungal pathogens; assay type: cell-based; details: 48 h, 48 hours, read-out: Concentration at 90% Inhibition Fv
Procedure: as §2

Diplodia maydis (Dm) = test: Growth inhibition assay of fungal pathogens; assay type: cell-based; details: Stenocarpella maydis, 48 h, read-out: Concentration at 90% Inhibition Dm
Procedure: as §2

[5] = system: Collectotrichum graminicola (Cg); test: Growth inhibition assay of fungal pathogens; assay type: cell-based; details: 48 h, read-out: Concentration at 90% Inhibition Cg
Procedure: as §2

Botrtyis cinerea (Bc) = test: Growth inhibition assay of fungal pathogens; assay type: cell-based; details: 48 h, read-out: Concentration at 90% Inhibition Bc
Procedure: as §2

Rhizoctonia solani (Rs) = test: Growth inhibition assay of fungal pathogens; assay type: cell-based; details: 48 h, read-out: Concentration at 90% Inhibition Rs
Procedure: as §2

human (hACC2) ACC2 = human (hACC2) ACC2 (Homo sapiens, UniProt O00763); test: In vitro Acetyl-CoA Carboxylase (ACC) inhibition assay (ADP-Glo), hACC2; assay type: biochemical
Procedure: The detailed procedure is as follows. […] 10 μL ADP glo reagent was added. […] 20 μL kinase detection reagent was added.
“NA” stands for “not assayed.”

human (hACC2) ACC2, sequence (O00763 whole entry): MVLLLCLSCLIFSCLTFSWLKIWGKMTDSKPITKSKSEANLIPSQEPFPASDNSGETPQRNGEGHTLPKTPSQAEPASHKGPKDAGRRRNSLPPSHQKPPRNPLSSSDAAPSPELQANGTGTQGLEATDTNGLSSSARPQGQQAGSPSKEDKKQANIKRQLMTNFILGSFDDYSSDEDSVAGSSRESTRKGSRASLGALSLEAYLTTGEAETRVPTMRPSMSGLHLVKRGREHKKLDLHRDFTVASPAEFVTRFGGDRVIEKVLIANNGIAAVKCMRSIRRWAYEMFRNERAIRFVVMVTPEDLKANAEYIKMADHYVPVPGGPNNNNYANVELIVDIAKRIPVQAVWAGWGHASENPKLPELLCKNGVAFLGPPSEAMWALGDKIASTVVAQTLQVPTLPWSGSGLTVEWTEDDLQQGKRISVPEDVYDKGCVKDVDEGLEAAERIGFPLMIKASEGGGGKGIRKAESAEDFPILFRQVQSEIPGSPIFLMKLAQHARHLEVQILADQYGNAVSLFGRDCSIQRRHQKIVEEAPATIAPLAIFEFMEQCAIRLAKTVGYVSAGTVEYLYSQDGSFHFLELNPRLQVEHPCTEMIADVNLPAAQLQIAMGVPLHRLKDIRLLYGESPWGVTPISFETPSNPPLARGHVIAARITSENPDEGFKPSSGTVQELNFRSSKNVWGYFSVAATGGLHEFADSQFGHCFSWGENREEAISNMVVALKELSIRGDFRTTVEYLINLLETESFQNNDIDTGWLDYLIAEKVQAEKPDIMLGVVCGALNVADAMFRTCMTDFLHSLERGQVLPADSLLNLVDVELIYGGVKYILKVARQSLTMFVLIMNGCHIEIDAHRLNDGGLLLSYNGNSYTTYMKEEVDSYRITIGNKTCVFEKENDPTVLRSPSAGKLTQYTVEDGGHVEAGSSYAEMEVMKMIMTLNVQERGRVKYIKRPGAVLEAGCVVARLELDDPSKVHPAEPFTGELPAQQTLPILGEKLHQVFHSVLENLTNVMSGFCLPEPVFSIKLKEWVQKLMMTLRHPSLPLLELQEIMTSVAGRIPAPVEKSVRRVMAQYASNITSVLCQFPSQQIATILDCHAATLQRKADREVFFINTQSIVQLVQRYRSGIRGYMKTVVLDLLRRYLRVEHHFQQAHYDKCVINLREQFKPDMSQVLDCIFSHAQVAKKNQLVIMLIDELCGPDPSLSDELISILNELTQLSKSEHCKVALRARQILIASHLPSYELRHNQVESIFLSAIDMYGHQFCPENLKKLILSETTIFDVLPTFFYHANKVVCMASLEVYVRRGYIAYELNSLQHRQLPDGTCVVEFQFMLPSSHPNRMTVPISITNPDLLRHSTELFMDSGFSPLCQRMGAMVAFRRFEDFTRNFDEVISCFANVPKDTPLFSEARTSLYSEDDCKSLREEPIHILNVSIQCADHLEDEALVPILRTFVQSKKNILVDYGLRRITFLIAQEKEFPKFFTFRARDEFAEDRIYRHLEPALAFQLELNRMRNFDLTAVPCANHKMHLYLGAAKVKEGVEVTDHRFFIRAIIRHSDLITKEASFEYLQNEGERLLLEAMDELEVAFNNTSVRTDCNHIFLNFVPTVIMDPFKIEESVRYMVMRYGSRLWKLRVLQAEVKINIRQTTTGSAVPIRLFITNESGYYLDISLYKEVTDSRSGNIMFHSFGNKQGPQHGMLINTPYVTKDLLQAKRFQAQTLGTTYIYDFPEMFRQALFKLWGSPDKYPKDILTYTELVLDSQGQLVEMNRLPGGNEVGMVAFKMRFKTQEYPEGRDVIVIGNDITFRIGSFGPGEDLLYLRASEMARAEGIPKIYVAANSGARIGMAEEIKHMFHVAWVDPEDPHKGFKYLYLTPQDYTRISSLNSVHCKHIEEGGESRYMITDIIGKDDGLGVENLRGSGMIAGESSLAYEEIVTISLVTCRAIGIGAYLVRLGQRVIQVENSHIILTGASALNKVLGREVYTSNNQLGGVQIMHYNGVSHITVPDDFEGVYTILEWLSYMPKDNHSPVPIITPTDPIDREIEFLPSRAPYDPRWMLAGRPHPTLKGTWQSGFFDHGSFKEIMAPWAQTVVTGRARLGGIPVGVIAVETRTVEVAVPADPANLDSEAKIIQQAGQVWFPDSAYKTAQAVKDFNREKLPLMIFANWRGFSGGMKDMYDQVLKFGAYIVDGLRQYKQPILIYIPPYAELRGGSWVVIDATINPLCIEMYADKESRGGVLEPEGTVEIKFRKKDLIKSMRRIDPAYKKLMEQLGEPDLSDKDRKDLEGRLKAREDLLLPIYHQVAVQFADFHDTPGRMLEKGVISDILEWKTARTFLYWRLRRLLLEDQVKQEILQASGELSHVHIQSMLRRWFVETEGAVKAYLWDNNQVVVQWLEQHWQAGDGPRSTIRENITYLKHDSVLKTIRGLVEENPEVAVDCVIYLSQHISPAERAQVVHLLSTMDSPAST

Structure (SMILES) | MIC [1] [µg/mL] | MIC (C. krusei ATCC 6258) [µg/mL] | MIC (C. albicans ATCC 90028) [µg/mL] | IC50 (human (hACC2) ACC2) [nM] | IC90 ([2]; Table 4a) [µg/mL] | Concentration at 90% Inhibition Pc ([2]; Table 4b) | Concentration at 90% Inhibition St (Septoria tritici (St); Table 4b) | IC90 (Septoria tritici (St); Table 4a) [µg/mL] | IC90 ([3]; Table 4a) [µg/mL] | IC90 ([3]; Table 4b) [µg/mL] | IC90 ([4]; Table 4a) [µg/mL] | IC90 ([4]; Table 4b) [µg/mL] | IC90 (Diplodia maydis (Dm); Table 4a) [µg/mL] | IC90 (Diplodia maydis (Dm); Table 4b) [µg/mL] | IC90 ([5]; Table 4a) [µg/mL] | IC90 ([5]; Table 4b) [µg/mL] | IC90 (Botrtyis cinerea (Bc); Table 4b) [µg/mL] | IC90 (Rhizoctonia solani (Rs); Table 4b) [µg/mL] | IC90 ([2]; Table 4b) [µg/mL] | IC90 (Septoria tritici (St); Table 4b) [µg/mL] | other results
COc1ccc(F)cc1[C@H](Cn1c(=O)n(C(C)(C)C(=O)N2CC(O)C2)c(=O)c2c(C)c(-n3cccn3)sc21)OC1CCOCC1 [Compound I-9, (R)-1-(2-(5-fluoro-2-methoxyphenyl)-2-((tetrahydro-2H-pyran-4-yl)oxy)ethyl)-3-(1-(3-hydroxyazetidin-1-yl)-2-methyl-1-oxopropan-2-yl)-5-methyl-6-(1H-pyrazol-1-yl)thieno[2,3-d]pyrimidine-2,4(1H,3H)-dione] |  |  |  | 10 to 40 |  |  |  |  |  | > 50 |  | > 50 |  | > 50 |  | > 50 | > 50 | > 50 | > 50 | > 50 | 
COc1ccccc1[C@H](Cn1c(=O)n(C(C)(C)C(N)=O)c(=O)c2c(C)c(-n3cccn3)sc21)OC(C)C [Compound I-16, (R)-2-(1-(2-isopropoxy-2-(2-methoxyphenyl)ethyl)-5-methyl-2,4-dioxo-6-(1H-pyrazol-1-yl)-1,4-dihydrothieno[2,3-d]pyrimidin-3(2H)-yl)-2-methylpropanamide] |  |  |  | 10 to 40 |  |  |  |  |  | > 50 |  | > 50 |  | > 50 |  | > 50 | > 50 | 10 (≈ 19 µM) | > 50 | > 50 | 
COc1ccccc1[C@H](Cn1c(=O)n(C(C)(C)C(N)=O)c(=O)c2c(C)c(-n3cccn3)sc21)OCC(C)C [Compound I-20, (R)-2-(1-(2-isobutoxy-2-(2-methoxyphenyl)ethyl)-5-methyl-2,4-dioxo-6-(1H-pyrazol-1-yl)-1,4-dihydrothieno[2,3-d]pyrimidin-3(2H)-yl)-2-methylpropanamide] |  |  |  | 3 to 10 |  |  |  |  |  | 10 (≈ 18.5 µM) |  | > 50 |  | 10 (≈ 18.5 µM) |  | > 50 | 10 (≈ 18.5 µM) | > 50 | > 50 | > 50 | 

Further lines, with some results ahead:

MIC [1] [µg/mL] | MIC (C. krusei ATCC 6258) [µg/mL] | MIC (C. albicans ATCC 90028) [µg/mL] | IC50 (human (hACC2) ACC2) [nM] | Structure (SMILES) | IC90 ([2]; Table 4a) [µg/mL] | Concentration at 90% Inhibition Pc ([2]; Table 4b) | Concentration at 90% Inhibition St (Septoria tritici (St); Table 4b) | IC90 (Septoria tritici (St); Table 4a) [µg/mL] | IC90 ([3]; Table 4a) [µg/mL] | IC90 ([3]; Table 4b) [µg/mL] | IC90 ([4]; Table 4a) [µg/mL] | IC90 ([4]; Table 4b) [µg/mL] | IC90 (Diplodia maydis (Dm); Table 4a) [µg/mL] | IC90 (Diplodia maydis (Dm); Table 4b) [µg/mL] | IC90 ([5]; Table 4a) [µg/mL] | IC90 ([5]; Table 4b) [µg/mL] | IC90 (Botrtyis cinerea (Bc); Table 4b) [µg/mL] | IC90 (Rhizoctonia solani (Rs); Table 4b) [µg/mL] | IC90 ([2]; Table 4b) [µg/mL] | IC90 (Septoria tritici (St); Table 4b) [µg/mL] | other results
> 4.1 | 2.1 to 4 (≈ 3.42 to 6.52 µM) | > 4.1 | 10 to 40 | COc1ccc(F)cc1[C@H](Cn1c(=O)n(C(C)(C)C(=O)N2CCOCC2)c(=O)c2c(C)c(-n3cccn3)sc21)OC(C)C [Compound I-3, (R)-1-(2-(5-fluoro-2-methoxyphenyl)-2-isopropoxyethyl)-5-methyl-3-(2-methyl-1-morpholino-1-oxopropan-2-yl)-6-(1H-pyrazol-1-yl)thieno[2,3-d]pyrimidine-2,4(1H,3H)-dione] | > 50 | D (“D” provided a compound concentration of >50 ppm at 90% inhibition of fungal pathogens) | D (“D” provided a compound concentration of >50 ppm at 90% inhibition of fungal pathogens) | > 50 | 2 (≈ 3.26 µM) | 2 (≈ 3.26 µM) | 2 (≈ 3.26 µM) | 2 (≈ 3.26 µM) | > 50 | 10 (≈ 16.3 µM) | > 50 | > 50 | 10 (≈ 16.3 µM) | > 50 |  |  | IC90 (Botrtyis cinerea (Bc); Table 4a): > 50 µg/mL; IC90 (Rhizoctonia solani (Rs); Table 4a): > 50 µg/mL
> 4.1 | 2.1 to 4 (≈ 3.59 to 6.83 µM) | > 4.1 | 10 to 40 | COc1ccc(F)cc1[C@H](Cn1c(=O)n(C(C)(C)C(N)=O)c(=O)c2c(C)c(-n3cccn3)sc21)OC1CCOCC1 [Compound I-4, (R)-2-(1-(2-(5-fluoro-2-methoxyphenyl)-2-((tetrahydro-2H-pyran-4-yl)oxy)ethyl)-5-methyl-2,4-dioxo-6-(1H-pyrazol-1-yl)-1,4-dihydrothieno[2,3-d]pyrimidin-3(2H)-yl)-2-methylpropanamide] | > 50 | D (“D” provided a compound concentration of >50 ppm at 90% inhibition of fungal pathogens) | D (“D” provided a compound concentration of >50 ppm at 90% inhibition of fungal pathogens) | > 50 | 2 (≈ 3.41 µM) | 2 (≈ 3.41 µM) | > 50 | > 50 | > 50 | > 50 | > 50 | 10 (≈ 17.1 µM) | 2 (≈ 3.41 µM) | > 50 |  |  | IC90 (Botrtyis cinerea (Bc); Table 4a): 2 µg/mL (≈ 3.41 µM); IC90 (Rhizoctonia solani (Rs); Table 4a): > 50 µg/mL
2.1 to 4 (≈ 3.5 to 6.67 µM) | 1.1 to 2 (≈ 1.83 to 3.34 µM) | 1.1 to 2 (≈ 1.83 to 3.34 µM) | 3 to 10 | COc1ccc(F)cc1[C@H](Cn1c(=O)n(C(C)(C)C(N)=O)c(=O)c2c(C)c(-n3cccn3)sc21)O[C@H]1CC[C@@H](O)CC1 [Compound I-5, 2-(1-((R)-2-(5-fluoro-2-methoxyphenyl)-2-(((s,4S)-4-hydroxycyclohexyl)oxy)ethyl)-5-methyl-2,4-dioxo-6-(1H-pyrazol-1-yl)-1,4-dihydro-thieno[2,3-d]pyrimidin-3(2H)-yl)-2-methylpropanamide] | > 50 | D (“D” provided a compound concentration of >50 ppm at 90% inhibition of fungal pathogens) | D (“D” provided a compound concentration of >50 ppm at 90% inhibition of fungal pathogens) | > 50 | 2 (≈ 3.34 µM) | 2 (≈ 3.34 µM) | > 50 | 10 (≈ 16.7 µM) | > 50 | 10 (≈ 16.7 µM) | > 50 | > 50 | 2 (≈ 3.34 µM) | 10 (≈ 16.7 µM) |  |  | IC90 (Botrtyis cinerea (Bc); Table 4a): 2 µg/mL (≈ 3.34 µM); IC90 (Rhizoctonia solani (Rs); Table 4a): > 50 µg/mL
 |  |  | 3 to 10 | COc1ccccc1[C@H](Cn1c(=O)n(C(C)(C)C(N)=O)c(=O)c2c(C)c(-n3cccn3)sc21)OC1CCOCC1 [Compound I-10, (R)-2-(1-(2-(2-methoxyphenyl)-2-((tetrahydro-2H-pyran-4-yl)oxy)ethyl)-5-methyl-2,4-dioxo-6-(1H-pyrazol-1-yl)-1,4-dihydrothieno[2,3-d]pyrimidin-3(2H)-yl)-2-methylpropanamide] |  |  |  |  |  | 10 (≈ 17.6 µM) |  | > 50 |  | > 50 |  | > 50 | > 50 | > 50 | > 50 | > 50 | 
